Source: ChEMBL document CHEMBL2407078, “Indole-diterpenoids with anti-H1N1 activity from the aciduric fungus Penicillium camemberti OUCMDZ-1492” (J Nat Prod, 2013)
pIC50: −log10 of the molar value.

System: Influenza A virus (A/Puerto Rico/8/1934(H1N1))
Assay: Antiviral activity against Influenza A virus (A/Puerto Rico/8/34(H1N1)) PR/8 infected in MDCK cells assessed as protection against virus-induced cytopathogenicity after 48 hrs by crystal-violet staining-based assay
Format: functional, organism-based
Details: PR/8, MDCK

| Compound | pIC50 |
| --- | --- |
| CC(O)(CO)[C@H]1O[C@H]2CC[C@@]3(C)[C@@](O)(CC[C@H]4Cc5c([nH]c6ccccc56)[C@@]43C)C2=CC1=O (some centres not stated) | 3.90 |
| CC(C)(O)[C@@H]1CC[C@]2(C)[C@H](CC[C@@]3(C)[C@H]2CC[C@H]2Cc4c([nH]c5ccccc45)[C@@]23C)O1 [PASPALINE] | 4.11 |
| CC(C)=CCc1cc2[nH]c3c(c2cc1CC=C(C)C)C[C@@H]1CC[C@@]2(O)C4=CC(=O)[C@@H](C(C)(C)O)O[C@H]4CC[C@]2(C)[C@@]31C | 4.13 |
| CC(C)=CCC[C@](C)(O)[C@H](O)CC/C(C)=C/CC/C(C)=C/Cc1c[nH]c2ccccc12 | 4.47 |
| CC(C)(O)[C@H]1O[C@H]2CC[C@@]3(C)[C@@H](CC[C@H]4Cc5c([nH]c6ccccc56)[C@@]43C)[C@]2(O)[C@H](O)[C@H]1O | 4.49 |
| CC(C)=CCc1ccc2[nH]c3c(c2c1)C[C@@H]1CC[C@@]2(O)C4=CC(=O)[C@@H](C(C)(C)O)O[C@H]4CC[C@]2(C)[C@@]31C | 5.18 |
| NC(=O)c1ncn([C@@H]2O[C@H](CO)[C@@H](O)[C@H]2O)n1 [RIBAVIRIN] | 3.95 |
| CC(C)(O)[C@@H]1CC=C2[C@H](CC[C@@]3(C)[C@H]2CC[C@H]2Cc4c([nH]c5ccccc45)[C@@]23C)O1 | 4.55 |
| CC(C)=CCC[C@]1(C)[C@@H](O)CC[C@@]2(C)[C@H]1CC[C@H]1Cc3c([nH]c4ccccc34)[C@@]12C [EMINDOLE SB] | 4.58 |
| CC(C)(O)[C@H]1O[C@H]2CC[C@@]3(C)[C@@](O)(CC[C@H]4Cc5c([nH]c6ccccc56)[C@@]43C)C2=CC1=O [PAXILLINE] | 4.75 |
| CC(C)(O)[C@@H]1CC[C@]2(C(=O)O)[C@H](CC[C@@]3(C)[C@H]2CC[C@H]2Cc4c([nH]c5ccccc45)[C@@]23C)O1 | 4.41 |
| CC(C)(O)[C@H]1O[C@H]2CC[C@@]3(C)[C@@H](CC[C@H]4Cc5c([nH]c6ccccc56)[C@@]43C)C2=CC1=O [DEHYDROXYPAXILLINE] | < 3.82 |
